Assay results from PMC12469269, “Investigating SMR Peptide Interactions with Breast Cancer-Associated Proteins” (International Journal of Molecular Sciences, 2025).
Entries after “also recorded” stand apart in the source; their conditions may differ.

Columns and labels:
Mortalin = assay: SPR competition: SMRwt binding to immobilized Mortalin with Mortalin peptides; set-up: species or system Human; settings: 20 µM SMRwt + 20 µM Mortalin peptide, 25 °C, HBS-P pH 7.4
Experimental: Both Vimentin and Mortalin were immobilized as ligands. We used 20 µM of SMRwt alone and 20 µM of Mortalin peptides alone, and their mixtures were used as analytes.
Figure 9 Competitive binding of SMR and Mortalin peptides to Vimentin and Mortalin proteins. Binding of SMRwt to immobilized Vimentin in the presence and absence of (A) Mortalin peptide #56, (B) Mortalin peptide #61, and (C) Mortalin peptide #62. Binding of SMRwt to immobilized Mortalin in the presence and absence of (D) Mortalin peptide #56, (E) Mortalin peptide #61, and (F) Mortalin peptide #62. SMRwt alone, as well as a mixture of His-tagged Mortalin peptides #56, #61, and #62 were injected as analytes to flow over the immobilized ligand surfaces. […] Vimentin and Mortalin proteins were immobilized as ligands on a CM5 sensor chip using standard amine coupling chemistry.
SPR experiments were conducted using a Biacore T200 instrument (Cytiva, Marlborough, MA, USA). CM5 sensor chips (Cytiva) were used to immobilize proteins and run subsequent binding assays at 25 °C. To investigate the direct binding of Nef and SMR peptides to Vimentin and Mortalin and SMR competition studies, both proteins were immobilized as ligands on the active flow cells (FCs) using standard amine coupling chemistry. […] Sensorgrams recorded for kinetics analyses were fitted to a 1:1 binding model using the Biacore T200 evaluation software version 3.2.1. […]

Mortalin (Grp-75) = assay: Co-immunoprecipitation / Western blot, Mortalin; type: binding, human; settings: MDA-MB-231, MCF-7, BT474 lysates; anti-FLAG M2 resin, 4 °C overnight
Experimental: MDA-MB-231, MCF-7, and BT474 BC cells were grown in RPMI 1640 medium containing 10% FBS at 37 °C in a T-75 tissue culture flask and collected via centrifugation at 1000× g for 20 min at 4 °C. The cell pellet was resuspended in 1 mL of 1X PBS and transferred to a 1.5 mL Eppendorf tube. Following microcentrifugation at 1000× g for 1 min, the pellet was resuspended in 1 mL of α-FLAG Lysis buffer through gentle pipetting (50 mM Tris HCl, pH 7.4; 150 mM sodium chloride [NaCl]; 1 mM EDTA; and 1% Triton X-100, with 1 mM phenylmethyl sulfonyl fluoride [PMSF] and 10 µL/mL Protease Inhibitor Cocktail with mammalian cell and tissue extracts [PIC; Sigma-Aldrich] added immediately before use). The suspension was differentially microcentrifuged at 2000× g for 5 min and at 13,000× g for 10 min to pellet the cell debris and DNA, respectively, and the supernatant (hereafter referred to as the Lysate) was collected. In total, 1 milligram of Lysate protein and 1 milligram of the SMRwt or SMRmut peptide were added to 20 µL of Anti-FLAG® M2 Affinity Gel (resin; Sigma). […]
Cell proteins were analyzed using Western blot analysis, as described previously. […] Protein bands were detected using Western blotting Luminol Reagent (Santa Cruz Biotechnology, Inc., Santa Cruz, CA, USA). […]

Substance	inhibition of SMRwt–Mortalin binding, in words (Mortalin; listed as Mortalin #61)	inhibition of SMRwt–Mortalin binding, in words (Mortalin; listed as Mortalin peptide #61)	co-immunoprecipitation with Mortalin, in words (Mortalin (Grp-75))
DQLPADECNKLKEEISKMRE [#61, Mortalin scanning peptide 61]	effectively compete with SMRwt to block its interaction with the Mortalin or Vimentin protein	inhibited SMRwt binding to both Mortalin and Vimentin; also recorded: completely blocks the 20 µM SMRwt from binding to both Vimentin and Mortalin; also recorded: complete inhibition	–
^66Ala-Gly-Phe-Pro-Val^70 [SMRmut, 5-mer negative control, Val66 changed to Ala]	–	–	not SMRmut, co-immunoprecipitated with Mortalin
